This is an account of results in BindingDB's records for doi:10.1016/j.bmcl.2013.08.111 (University of Michigan, 2013).

This assay deals with Catenin beta-1/Transcription factor 7-like 2 (Homo sapiens, UniProt P35222+Q9NQB0). The assay can be described thus: Inhibition of human TCF4/ flag epitope-tagged beta-catenin (unknown origin) interaction transfected in human HCT116 cells after 24 hrs by beta-galactosidase/luciferase reporter gene assay.
Chain of Catenin beta-1/Transcription factor 7-like 2 (P35222 whole entry): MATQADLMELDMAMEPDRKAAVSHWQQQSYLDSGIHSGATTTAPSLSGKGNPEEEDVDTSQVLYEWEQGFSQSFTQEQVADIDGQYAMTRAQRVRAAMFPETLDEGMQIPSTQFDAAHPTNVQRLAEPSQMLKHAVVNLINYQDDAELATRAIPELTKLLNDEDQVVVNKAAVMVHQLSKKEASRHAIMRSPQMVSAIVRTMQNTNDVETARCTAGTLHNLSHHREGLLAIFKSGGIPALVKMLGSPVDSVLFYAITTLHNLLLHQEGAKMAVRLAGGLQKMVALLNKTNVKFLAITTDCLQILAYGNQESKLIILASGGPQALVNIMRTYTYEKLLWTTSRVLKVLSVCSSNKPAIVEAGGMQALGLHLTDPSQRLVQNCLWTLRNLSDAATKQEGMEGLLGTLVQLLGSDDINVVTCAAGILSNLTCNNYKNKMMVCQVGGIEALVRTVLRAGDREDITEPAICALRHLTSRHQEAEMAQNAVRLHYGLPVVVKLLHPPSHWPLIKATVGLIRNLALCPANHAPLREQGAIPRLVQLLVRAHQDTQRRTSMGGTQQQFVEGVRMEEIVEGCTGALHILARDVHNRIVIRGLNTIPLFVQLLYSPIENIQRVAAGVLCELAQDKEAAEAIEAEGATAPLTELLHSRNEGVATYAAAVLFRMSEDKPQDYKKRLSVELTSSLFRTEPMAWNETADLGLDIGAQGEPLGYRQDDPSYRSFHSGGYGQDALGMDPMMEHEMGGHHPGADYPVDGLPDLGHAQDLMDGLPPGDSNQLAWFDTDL
Chain of Catenin beta-1/Transcription factor 7-like 2 (Q9NQB0 whole entry): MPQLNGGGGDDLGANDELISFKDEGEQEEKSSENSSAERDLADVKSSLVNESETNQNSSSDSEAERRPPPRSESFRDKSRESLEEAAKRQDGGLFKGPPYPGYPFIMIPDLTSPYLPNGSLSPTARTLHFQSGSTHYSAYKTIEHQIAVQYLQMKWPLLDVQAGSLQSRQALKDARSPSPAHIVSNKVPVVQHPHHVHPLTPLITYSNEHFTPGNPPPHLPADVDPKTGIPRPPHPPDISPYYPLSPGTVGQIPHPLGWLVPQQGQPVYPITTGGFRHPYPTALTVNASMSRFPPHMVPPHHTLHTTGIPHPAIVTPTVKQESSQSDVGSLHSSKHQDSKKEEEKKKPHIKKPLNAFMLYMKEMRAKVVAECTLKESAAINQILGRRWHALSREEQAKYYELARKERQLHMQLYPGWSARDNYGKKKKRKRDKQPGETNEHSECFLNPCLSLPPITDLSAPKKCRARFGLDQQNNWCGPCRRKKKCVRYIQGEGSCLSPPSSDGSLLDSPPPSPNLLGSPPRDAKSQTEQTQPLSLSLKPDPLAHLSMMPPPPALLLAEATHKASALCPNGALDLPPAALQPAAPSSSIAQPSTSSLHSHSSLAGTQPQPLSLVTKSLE

In the case of `Cn1nc(-c2ccc(Cl)cc2)nc2c(=O)n(C)c(=O)nc1-2` [3-(4-Chloro-phenyl)-1,6-dimethyl-1H-pyrimido[5,4-e][1,2,4]triazine-5,7-dione], the IC50 came to 300 nM.
